According to patent publication US8809315B2, “Combination medicaments for treating bacterial infections” (Basilea Pharmaceutica AG, priority 2007, dated 2014):

Key:
Assay in all cases: MIC, broth microdilution (NCCLS M7-A6)
Type in all cases: cell-based
[1] = test system: Pseudomonas aeruginosa (67/2B)2R.A. [DSM 18988]; conditions: P. aeruginosa (67/2B)2R.A.; combinations of equal weights; IsoSensiTest Broth + 16 μg/mL 2,2'-bipyridyl
Experimental: (§1) Antimicrobial activity of the compounds and of their combinations is determined against a selection of organisms according to standard procedures described by the National Committee for Clinical Laboratory Standards (NCCLS document M7-A6). […] In all cases the final concentration of DMSO incubated with the bacteria is less than or equal to 1%. […] Plates are incubated overnight at an appropriate temperature (30° C. or 37° C.) and optical densities assessed by eye. The MIC value is defined as the lowest compound concentration completely inhibiting visible growth of the test organism. Synergism tests are performed under the same conditions as described above but with two antimicrobial agents dispensed in checkerboard format [Isenberg H D (1992) Synergism testing: Broth microdilution checkerboard and broth macrodilution methods. In: Clinical Microbiology Procedures Manual vol. 1. Washington, D.C.: American Society for Microbiology. […] The strains used are: Pseudomonas aeruginosa 6067 (Accession number at the DSMZDeutsche Sammlung von Mikroorganismen and Zellkulturen GmbH, Inhoffenstr. 7 B, D-38124 Braunschweig: […] (DSM 18988), Achromobacter (formerly Alcaligenes) xylosoxidans QK3/96 (DSM 18991), Enterobacter aerogenes Zayakosky 5 (DSM 18992).

[2] = test system: Achromobacter (formerly Alcaligenes) xylosoxidans QK3/96 [DSM 18991]; conditions: A. xylosoxidans QK3/96; combinations of equal weights; IsoSensiTest Broth + 16 μg/mL 2,2'-bipyridyl
Experimental: as §1

[3] = test system: Enterobacter aerogenes Zayakosky 5 [DSM 18992]; conditions: E. aerogenes Zayakosky 5; combinations of equal weights; IsoSensiTest Broth + 16 μg/mL 2,2'-bipyridyl
Experimental: as §1

[4] = test system: Pseudomonas aeruginosa 6067 [DSM 18987]; conditions: P. aeruginosa 6067; combinations of equal weights; IsoSensiTest Broth + 16 μg/mL 2,2'-bipyridyl
Experimental: as §1

SMILES	Minimum Inhibitory Concentration [1] [mg/L]	Minimum Inhibitory Concentration [2] [mg/L]	Minimum Inhibitory Concentration [3] [mg/L]	Minimum Inhibitory Concentration [4] [mg/L]
C[C@H]1[C@H](NC(=O)/C(=N/OCc2cc(=O)c(O)cn2O)c2cccs2)C(=O)N1S(=O)(=O)O [Compound B]	>64	>64	>64	>64
C[C@@H](O)[C@H]1C(=O)N2C(C(=O)O)=C(S[C@@H]3CN[C@H](C(=O)Nc4cccc(C(=O)O)c4)C3)[C@H](C)[C@H]12 [Ertapenem]	>32	>32	>32	>32
C[C@@H](O)[C@H]1C(=O)N2C(C(=O)O)=C(S[C@@H]3CN[C@H](CNS(N)(=O)=O)C3)[C@H](C)[C@H]12 [Doripenem]	4	16	8	16
C[C@@H](O)[C@H]1C(=O)N2C(C(=O)O)=C(SCCN=CN)C[C@H]12 [Imipenem]	16	4	32	4
C[C@H]1[C@H](NC(=O)/C(=N\OCc2cc(=O)c(O)cn2O)c2cccs2)C(=O)N1S(=O)(=O)O [Compound A, (3S)-trans-3-[(E)-2-(2-thienyl)-2-{(1,5-dihydroxy-4-pyridon-2-ylmethoxy)imino}-acetamido]-4-methyl-2-oxazetidine-1-sulfonic acid]	>64	>64	>64	>64
CC1(C)[C@H](NC(=O)/C(=N\OCc2cc(=O)c(O)cn2O)c2csc(N)n2)C(=O)N1OS(=O)(=O)O [Compound of formula I, (3S)-3-{(2Z)-2-(2-amino(1,3-thiazol-4-yl))-3-[(1,5-dihydroxy-4-oxo(2-hydropyridyl))methoxy]-3-azaprop-2-enoylamino}-4,4-dimethyl-2-oxoazetidinyl hydroxysulfonate]	32	16	16	16
C[C@@H](O)[C@H]1C(=O)N2C(C(=O)O)=C(S[C@@H]3CN[C@H](C(=O)N(C)C)C3)[C@H](C)[C@H]12 [Meropenem]	4	16	16	16
C[C@H]1[C@H](NC(=O)/C(=N\OC(C)(C)C(=O)O)c2csc(N)n2)C(=O)N1S(=O)(=O)O [Aztreonam, (Z)-2-[[[(2-amino-4-thiazolyl)[[(2S,3S)-2-methyl-4-oxo-1-sulfo-3-azetidinyl]-carbamoyl]methylene]amino]oxy]-2-methylpropionic acid]	4	>64	64	16
